Assay results: BindingDB's records for doi:10.1021/jm010216r (Academia Sinica, 2001)

Experiment: Inhibitory activity against PRPP synthetase

Nc1ncnc2ncn(CCOCP(=O)(O)O)c12 [[2-(6-Amino-purin-7-yl)-ethoxymethyl]-phosphonic acid]
Ki: 17 mM
